Data reported in article PMC11945486, “TAS1R2/TAS1R3 Single-Nucleotide Polymorphisms Affect Sweet Taste Receptor Activation by Sweeteners: The SWEET Project” (Nutrients, 2025).
Where two headings read alike, the source gives them in different places. One block for each molecule: values may come before it. No end group written: not given here.

Molecular target: T1, human TAS1R2-WT/TAS1R3-L823F (Homo sapiens, UniProt Q7RTX0+Q8TE23, L823F)
T1 construct: expressed in transfected cells; host or cells: HEK293T stably expressing Gα16gust44
T1 sequence (Q8TE23 20-839): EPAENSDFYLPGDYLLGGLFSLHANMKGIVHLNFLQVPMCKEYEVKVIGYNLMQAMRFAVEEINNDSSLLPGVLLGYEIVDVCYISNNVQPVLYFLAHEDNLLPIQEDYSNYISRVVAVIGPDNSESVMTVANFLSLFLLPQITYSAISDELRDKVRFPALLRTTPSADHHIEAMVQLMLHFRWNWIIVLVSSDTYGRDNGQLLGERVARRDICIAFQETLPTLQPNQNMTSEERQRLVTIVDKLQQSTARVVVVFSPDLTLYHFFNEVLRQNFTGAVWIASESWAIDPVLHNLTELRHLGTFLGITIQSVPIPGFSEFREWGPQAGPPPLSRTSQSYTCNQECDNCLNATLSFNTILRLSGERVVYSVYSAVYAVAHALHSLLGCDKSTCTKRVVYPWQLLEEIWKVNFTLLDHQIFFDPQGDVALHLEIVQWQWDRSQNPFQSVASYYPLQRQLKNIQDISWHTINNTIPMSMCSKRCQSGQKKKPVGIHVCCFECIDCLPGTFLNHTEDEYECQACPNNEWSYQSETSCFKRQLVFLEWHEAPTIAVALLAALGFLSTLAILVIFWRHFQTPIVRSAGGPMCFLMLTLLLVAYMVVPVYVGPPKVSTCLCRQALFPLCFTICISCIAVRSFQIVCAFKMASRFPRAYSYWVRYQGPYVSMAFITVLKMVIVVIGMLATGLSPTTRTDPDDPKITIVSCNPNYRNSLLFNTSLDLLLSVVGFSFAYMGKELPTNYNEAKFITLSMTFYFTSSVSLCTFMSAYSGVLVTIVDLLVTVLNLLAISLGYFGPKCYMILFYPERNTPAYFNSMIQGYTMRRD
T1 sequence (Q7RTX0 21-852 L823F): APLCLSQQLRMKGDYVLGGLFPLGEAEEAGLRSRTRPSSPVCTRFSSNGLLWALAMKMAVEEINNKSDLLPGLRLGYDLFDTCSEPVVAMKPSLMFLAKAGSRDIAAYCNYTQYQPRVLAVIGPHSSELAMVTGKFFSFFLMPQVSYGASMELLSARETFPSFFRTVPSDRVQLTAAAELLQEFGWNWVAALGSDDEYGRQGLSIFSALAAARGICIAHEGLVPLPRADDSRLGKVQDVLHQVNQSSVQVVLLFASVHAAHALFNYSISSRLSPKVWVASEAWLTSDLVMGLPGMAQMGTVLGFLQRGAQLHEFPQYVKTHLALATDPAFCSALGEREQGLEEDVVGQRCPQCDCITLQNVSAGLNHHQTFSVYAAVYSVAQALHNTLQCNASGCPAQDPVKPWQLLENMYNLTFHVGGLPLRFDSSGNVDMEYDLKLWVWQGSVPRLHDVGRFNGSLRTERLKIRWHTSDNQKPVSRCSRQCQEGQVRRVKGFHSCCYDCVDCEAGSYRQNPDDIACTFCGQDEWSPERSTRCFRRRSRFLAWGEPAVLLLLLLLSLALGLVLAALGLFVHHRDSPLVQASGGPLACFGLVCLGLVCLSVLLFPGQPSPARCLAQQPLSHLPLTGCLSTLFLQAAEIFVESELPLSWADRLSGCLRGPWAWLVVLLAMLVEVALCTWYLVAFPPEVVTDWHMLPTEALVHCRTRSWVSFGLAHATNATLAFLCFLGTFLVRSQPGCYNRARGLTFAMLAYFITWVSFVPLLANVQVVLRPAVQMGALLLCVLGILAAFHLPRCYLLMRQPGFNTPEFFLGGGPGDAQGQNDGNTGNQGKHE
Test: Calcium mobilisation assay, TAS1R2-WT with TAS1R3 variant L823F
Type: cell-based
Settings: for Max ΔF/F0: maximal signal amplitude
Excerpt: The coding sequences for TAS1R2 and TAS1R3 were commercially synthesised, and the human codon was optimised for expression in human cells. The coding sequences of human TAS1R2 and TAS1R3 were subcloned and inserted into the mammalian expression vectors pcDNA6/myc-HisA and pcDNA4/myc-HisA (Invitrogen; Thermo Fisher Scientific; Illkirch, France) between the EcoRI and NotI restriction sites, generating the plasmids pcDNA6-TAS1R2 and pcDNA4-TAS1R3, respectively. To increase protein expression in mammalian cells, an upstream start codon was used, which was a sequence called MAX, corresponding to the QBI SP163 element also described in pcDNA4-HisMax (Invitrogen; Thermo Fisher Scientific; Illkirch, France). To measure the expression level of the receptor by immunohistochemistry, we used the FLAG sequence ([…]) in the C-terminal position, which encodes the FLAG tag epitope. SNP variants of TAS1R2 and TAS1R3 were constructed based on […], respectively, using site-directed mutagenesis (Genewiz; Leipzig, Germany).
The HEK293T cells were kindly provided by Jay P. Slack (Givaudan Flavors Corporation; Cincinnati, OH, USA). HEK293T cells stably transfected with Gα16gust44 [43, 67] were seeded in poly-D-lysine-coated clear-bottom black 96-well plates (0.35 × 10^5 cells/well) in high-glucose DMEM supplemented with 2 mM GlutaMAX, 10% dialysed foetal bovine serum with penicillin/streptomycin and G418 (400 μg/mL) at 37 °C and 6.3% CO2 in a humidified atmosphere as previously reported. […] As a negative control, HEK293T cells were mock-transfected with the empty expression vector. After a further 24 h of incubation, the HEK293T cells were washed with C1 buffer (130 mM NaCl, 5 mM KCl, 10 mM HEPES pH 7.4 and 2 mM CaCl2). The 96-well plates containing the cells were then stimulated with sweet-tasting compounds. […] Different concentration ranges were tested depending on the sweet compound injected. The Ca^2+ changes were expressed as fractional changes in fluorescent light intensity: ΔF/F = (F − F0)/F0, where F was the fluorescent light intensity at each point, and F0 was the value of emitted fluorescent light prior to stimulus application. To calculate dose–response relationships, the changes in fluorescence upon stimulus application were averaged, mock-subtracted and baseline-corrected. The dose–response data obtained were adjusted using a 4-parameter logistic equation. The half-maximal effective concentrations (EC50 values) and maximal signal amplitudes were calculated using SigmaPlot software (version 15.0) (Systat Software; San Jose, CA, USA).
For in vitro calcium mobilisation assay performed on hTAS1R2-SNPs, hTAS1R3-SNPs and mTAS1R3-I60T, 6 to 7 concentrations were tested for each sweet compound, plus buffer alone. All concentration–receptor combinations were measured in duplicate, and each experiment was repeated at least 4 times (8 wells/concentration). Results were expressed for each concentration as ΔF/F mean ± SEM and represented as dose–response curves.

Molecule: CC1=CC(=O)NS(=O)(=O)O1 [Acesulfame K, acesulfame K]
R1 = Variant EC50/WT EC50: 0.6
Max ΔF/F0: 0.33 ± 0.01
EC50 (read-out: EC50): 376 ± 34 µM

Molecule: O=S(=O)(O)NC1CCCCC1 [Cyclamate, cyclamate]
EC50 (read-out: EC50): 1370 ± 34 µM

Molecule: C[C@H](CC[C@@H](O[C@@H]1O[C@H](CO[C@@H]2O[C@H](CO)[C@@H](O)[C@H](O)[C@H]2O)[C@@H](O)[C@H](O)[C@H]1O[C@@H]1O[C@H](CO)[C@@H](O)[C@H](O)[C@H]1O)C(C)(C)O)[C@H]1CC[C@@]2(C)[C@@H]3CC=C4[C@@H](CC[C@H](O[C@@H]5O[C@H](CO[C@@H]6O[C@H](CO)[C@@H](O)[C@H](O)[C@H]6O)[C@@H](O)[C@H](O)[C@H]5O)C4(C)C)[C@]3(C)[C@H](O)C[C@]12C [Mogroside V, mogroside V]
R1 = Variant EC50/WT EC50: 0.7
Max ΔF/F0: 1.18 ± 0.04
EC50 (read-out: EC50): 22 ± 1.8 µM

Molecule: COc1ccc(CCC(=O)c2c(O)cc(O[C@@H]3O[C@H](CO)[C@@H](O)[C@H](O)[C@H]3O[C@@H]3O[C@@H](C)[C@H](O)[C@@H](O)[C@H]3O)cc2O)cc1O [NHDC, neohesperidin dihydrochalcone]
R1 = Variant EC50/WT EC50: 0.9
Max ΔF/F0: 1.00 ± 0.01
EC50 (read-out: EC50): 43.1 ± 14.7 µM

Molecule: COC(=O)[C@H](Cc1ccccc1)NC(=O)[C@H](CC(=O)O)NCCC(C)(C)C [Neotame]
R1 = Variant EC50/WT EC50: 0.9
Max ΔF/F0: 0.76 ± 0.01
EC50 (read-out: EC50): 1.1 ± 0.06 µM

Molecule: C=C(C)[C@@H]1CC=C(/C=N/O)CC1 [Perillartine, perillartine]
R1 = Variant EC50/WT EC50: 0.7
Max ΔF/F0: 1.39 ± 0.15
EC50 (read-out: EC50): 10 ± 3.1 µM

Molecule: C=C1C[C@@]23CC[C@H]4[C@@](C)(CCC[C@@]4(C)C(=O)O[C@@H]4O[C@H](CO)[C@@H](O)[C@H](O[C@@H]5O[C@H](CO)[C@@H](O)[C@H](O)[C@H]5O)[C@H]4O[C@@H]4O[C@H](CO)[C@@H](O)[C@H](O)[C@H]4O)[C@@H]2CC[C@]1(O[C@@H]1O[C@H](CO)[C@@H](O)[C@H](O[C@@H]2O[C@H](CO)[C@@H](O)[C@H](O)[C@H]2O)[C@H]1O[C@@H]1O[C@H](CO)[C@@H](O)[C@H](O)[C@H]1O)C3 [Rebaudioside M, rebaudioside M]
R1 = Variant EC50/WT EC50: 0.8
Max ΔF/F0: 1.35 ± 0.09
EC50 (read-out: EC50): 33.2 ± 5.4 µM

Molecule: OC[C@H]1O[C@H](O[C@]2(CCl)O[C@H](CCl)[C@@H](O)[C@@H]2O)[C@H](O)[C@@H](O)[C@H]1Cl [Sucralose]
R1 = Variant EC50/WT EC50: 1.2
Max ΔF/F0: 0.84 ± 0.02
EC50 (read-out: EC50): 134 ± 8 µM

Now from value to molecule:

R1 = Variant EC50/WT EC50: 0.7
EC50 (brazzein): 78.9 ± 14.2 µg/mL
Max ΔF/F0: 0.98 ± 0.05
Molecule: brazzein (QDKCKKVYENYPVSKCQLANQCNYDCKLDKHARSGECFYDEKRNLQCICDYCEY; ends and bridges not checked; cysteine pairing not given here; UniProt P56552 1-54, looked up) [sweet-tasting protein obtained by recombinant production using the yeast Pichia pastoris]

R1 = Variant EC50/WT EC50: 0.7
Max ΔF/F0: 0.71 ± 0.04
Molecule: thaumatin

EC50 (read-out: EC50): 7.4 ± 1.1 µM
B1: thaumatin (protein)
chain: ATFEIVNRCSYTVWAAASKGDAALDAGGRQLNSGESWTINVEPGTKGGKIWARTDCYFDDSGSGICKTGDCGGLLRCKRFGRPPTTLAEFSLNQYGKDYIDISNIKGFNVPMDFSPTTRGCRGVRCAADIVGQCPAKLKAPGGGCNDACTVFQTSEYCCTTGKCGPTEYSRFFKRLCPDAFSYVLDKPTTVTCPGSSNYRVTFCPTA
modifications: Eight disulfides
notes: sweet-tasting plant protein, E957
